Entries after “also recorded” stand apart in the source; their conditions may differ.
System: T. cruzi (Tulahuen strain) in L929
Assay: Washout assay in T. cruzi-infected L929 cultures (Tulahuen strain)
Format: cell-based, Trypanosoma cruzi
Settings: 10 μM for seven days, then seven days drug-free medium; light microscopy
Method: To explore in vitro parasitic exhaustion, T. cruzi-infected L929 cultures were incubated for seven days with the compounds at 10 μM. Then, fresh drug-free medium was added and replaced every 48 h. After seven days of incubation, the number of released parasites into the supernatant was quantified by light microscopy.
T. cruzi-infected L929 cultures (using the Tulahuen-β gal strain) were exposed or not to 10 µM of each nucleoside derivative, and the RPMI culture medium (containing the tested compounds) replaced every 48 h. After seven days of incubation, the cultures were rinsed with 0.1 M phosphate buffered saline (PBS), and drug-free culture medium was added for another seven days of incubation, replacing the drug-free medium every 48 h. Parasites released into the supernatant of the cell cultures were quantified using light microscopy, and the parasite burden into the infected cultures was analyzed by adding the substrate CPRG (chlorophenol red ß-D-galactopyranoside) followed by spectrophotometric measurements at 570 nm. The results were expressed as percentage of reduction in parasite growth compared to untreated cells, and EC50 values were calculated. Bz was used as a positive control. The data results from two independent experiments done in at least duplicate.

`Nc1ncnc2c1c(-c1ccc(Cl)c(F)c1)cn2[C@@H]1O[C@H](CO)[C@@H](O)[C@H]1O` [FH10714, 7-(3-fluoro,4-chlorophenyl)tubercidin] was tested, and the “parasites released into the supernatant after washout” value was “sterilized the infected cultures; also recorded: cleared the parasitism; also recorded: eliminated the parasitism”.
